Reference: patent US6827926B2, “Metallotetrapyrrolic photosensitizing agents for use in photodynamic therapy” (Miravant Pharmaceuticals, Inc., priority 2001, dated 2004)
Where two headings read alike, the source gives them in different places.

Assays:
[1] = test system: normal skin of CD Hairless male rats; assay type: in vivo, rat
Excerpt: We tested metallo- and metal-free tetrapyrroles systemically (see following section) for normal skin response in relation to the pharmacodynamic distribution of the photosensitizers in CD hairless rats. The skin of CD hairless rats are poorly developed, often referred to as hyperkeratotic, with various sized cystic hair follicles containing concentric lamellar accumulations of keratinaceous material, which are often associated with enlarged sebaceous glands. It quickly became apparent that gallium tetrapyrroles induced a marked clearing of the hyperkeratotic lesions in the treatment areas on the hairless rats. In fact, this clearing could be induced without necrosis of the skin. No other metallotetrapyrrole type produced such effects. This observation led us to assess the metallotetrapyrrolic compounds for skin restructuring effects both topically and systemically and for their ability to reduce hair growth in the following animal models.
Photosensitizer normal skin response as well as skin healing response, was evaluated using CD Hairless male rats. Photosensitizers were administered in an liposomal egg yolk phospholipid formulation at 1, 1.5 and 2 μmol/kg body weight formulation per dose group as a single bolus intravenous injection given through a marginal tail vein using a 27 gauge needle and a 1 cc tuberculin syringe. Normal skin responses were evaluated by irradiating several spots on the skin of the rat with a 532 nm laser (150 mW/cm^2, 150J, 1 cm diameter) at 1, 6, 24, 48, and 96 hrs post injection. Normal skin responses were evaluated and documented. The time at which the last spot is observed at the concentration injected is reported in the far right hand column in Tables 3, 4, 5 and 6. Skin samples were taken for histological evaluation at days 1, 10, 20 and 22 post light treatment. Rats were housed under normal lighting and all study procedures involving the test article were conducted under light filtered through blue and green Roscolox light filters to prevent photoactivation or degradation of the drug.

[2] = test system: V79 (Chinese Hamster Lung Fibroblasts) cells; assay: In vitro cytotoxicity assay (light EC50, Alamar blue); assay type: cell-based
Experimental: The in vitro biological evaluation of photosensitizers for their ability to photosensitize cells was performed using standard procedures. Using 5% FBS/DMEM phenol-free media, wells (180 μl/well) were plated with 5×10^4 V79 (Chinese Hamster Lung Fibroblasts) cells/ml into two 96 well plates. Plate 1 was light-treated and plate 2 served as a control. The plates were Incubated at 37° C., 5% CO2 for 3-5 hours. Standard solutions of the photosensitizers were dissolved in pre-filtered Dimethyl Sulfoxide (DMSO). Drug was diluted in 5% FBS DMEM phenol free medium. Final drug concentrations for light and dark experiments were 0.01, 0.1, 1.0, 3.0 and 5.0 μM. Twenty microliters of each concentration were added to six replicate wells to the light and dark plate. The plates were wrapped in aluminum foil to avoid photoactivation and mixed in a gyratory shaker for approximately 2 minutes. Both plates were incubated for 24 hours at 37° C., 5% CO2. After a 24 hour incubation, drug-containing media was aspirated from the plates. Each well was rinsed with 180 μl Hepes buffer salt solution (HBSS) then aspirated to remove the HBSS. 180 μl of fresh media were added (5% FBS/DMEM phenol-free) to each well. […] Plate 2 was not light treated. Immediately after light treatment, 20 μl Alamar blue was added to each well in plate 1. Alamar blue was added to plate 2 immediately after fresh media was added. The plates were mixed on a gyratory shaker for 5 min.
Both plates were incubated under dark conditions for 24 hours at 37° C., 5% CO2. After 24 hour incubation, the plates were read on a plate reader spectrophotometer (Spectra Max 250) at wavelengths 570 and 600 nm. and the percentage of cell survival recorded.

[3] = test system: normal uninjured rat carotid arteries (medial and adventitial cell populations); assay: In vivo rat carotid artery acellularity after PDT; parameters: species or system Sprague Dawley rats; conditions: for Max % rat Artery Accelularity: Table 3; for Max % Rat Artery Accelularity: Table 4, drug dose 4 μMol
Experimental: The acute effects of metallated photosensitizers, in response to light activation, to cause depletion of cell populations in the medial and adventitial layers of vessels was measured in normal uninjured rat carotid arteries. […] Shortly before the light treatment, the rats were anaesthetized with 3.5% isoflurane (Abbott Laboratories, IL, USA) and the femoral region of the right leg was shaved and cleaned. […] A direct arteriotomy was performed and a light balloon catheter ([…] Medical Technologies, Inc) was introduced into the vessel and advanced retrogradely into a non-manipulated region of the left common carotid artery via the abdominal aorta. […] After light treatment and removal of the catheter, the right femoral artery was tied off and the skin wound was closed. Rats were sacrificed three days post treatment as this corresponds to the known peak time that vascular cells, e.g., VSMC and myofibroblasts, proliferate and migrate in response to an injury. The area spanning both left and right carotid arteries and surrounding tissue was harvested, fixed, embedded in paraffin and sectioned. The tissues were stained with Hematoxylin and Eosin (Fisher Scientific, PA) and examined by light microscopy to histologically assess the cell population density in the medial and adventitial layers of the PDT-treated vessel wall. […] Metallo azaporphyrins with Ga, Zn, Al, Sn were excited at 575 nm, while Pt azaporphyrins were excited at 532 nm.

[4] = Table 3 porphyrins, 24 h drug incubation, 532 nm, 1.25 J/cm^2, read-out: In Vitro EC50 Light
[5] = drug dose 1 μMol, 50 J/cm^2, 3 days post treatment
[6] = Table 3, time of last skin spot observed post injection, 1 μmol, 532 nm laser

| Molecule | Normal skin Response (1 μmol) in hrs ([1]; rat, in vivo) | EC50 [2, 4] [nM] | Normal skin Response (1 μmol) ([1]; rat, in vivo) [h] | Max % rat Artery Accelularity [3, 5] [%] | other results |
| --- | --- | --- | --- | --- | --- |
| 8,13-diethyl-3,7,12,17-tetramethylporphrine-2,18-di(3′-hydroxypropyl) [Example 7a] | none | 400 | – | – | Max % rat Artery Accelularity ([3]; drug dose 0.16 μMol): 7%; efficacy of free base porphyrins in the arterial rat model ([3]; at the time point, drug and light dose parameters used): poor efficacy; efficacy in the rat arterial model ([3]; drug doses up to 2 μmol/Kg): no efficacy |
| CCOC(=O)CCC1=C(C)c2cc3[n-]c(cc4nc(cc5[n-]c(cc1n2)c(CCC(=O)OCC)c5C)C(CC)=C4C)c(CC)c3C.[Cl-].[Ga+3] [Example 2, Gallium Chloride Mesoporphyrin Diethyl Ester] | – | 490 | 24 | 80 | – |
| CCOC(=O)CCC1=C(C)c2cc3[n-]c(cc4nc(cc5[n-]c(cc1n2)c(CCC(=O)OCC)c5C)C=C4C)cc3C.[Cl-].[Ga+3] [Example 5, Gallium Chloride Deuteroporphyrin Diethyl Ester] | – | 400 | 48 | 80 | – |
| CC1=Cc2cc3[n-]c(cc4nc(cc5[n-]c(cc1n2)c(C)c5CCCO)C(CCCO)=C4C)cc3C.[Cl-].[Ga+3] [Example 8, Gallium Chloride 8,13-desvinyl-3,7,12,17-tetramethylporphyrin-2,18-di(3′-hydroxypropyl)] | – | 400 | 96 | 80 | – |
| CCC1=C(C)C2=[N+]3C1=Cc1c(C)c(CC)c4[n]1[Ga-2]31([Cl])[n]3c(c(C)c(CCC(=O)NCCOC)c3=CC3=[N+]1C(=C4)C(C)=C3CCC(=O)NCCOC)=C2 [Example 11, Gallium Chloride Mesoporphyrin di-(2′-methoxyethyl amide)] | – | 1900 | 6 | 30 | – |
| COC(=O)CCC1=C(C)c2cc3[n-]c(cc4nc(cc5[n-]c(cc1n2)c(CCC(=O)OC)c5C)C(CN(C)C)=C4C)c(CN(C)C)c3C.[Ga+3].[OH-] [Example 12, Gallium Hydroxy 3,8-N,N-dimethylaminomethyl deuteroporphyrin dimethyl ester] | None | 500 | – | 50 | – |
| C=Cc1c(C)c2cc3nc(c(CC(=O)OC)c4[n-]c(cc5nc(cc1[n-]2)C(C)=C5CC)c(C)c4C(=O)NC)C(CCC(=O)OC)=C3C.[Cl-].[Ga+3] [Example 14, Gallium Chloride Chloroporphyrin e6 Dimethyl Ester 12-methylamide] | – | – | 6 | – | EC50 ([2]; Table 5 plant derived gallium porphyrins, light, read-out: In Vitro EC(50)): 290 nM; Max % Rat Artery Acceluarity ([3]; Table 5, drug dose 1 μMol): 65% |
| CCC1=C(C)c2cc3[n-]c(cc4nc(cc5[n-]c(cc1n2)c(C)c5CCC(=O)OC)C(CCC(=O)OC)=C4C)c(C)c3CC.[Zn+2] [Example 33, Zinc Mesoporphyrin Dimethyl Ester] | – | – | 24 | 0 | – |
| CCC1=C(C)C2=NC1=Cc1c(C)c(CC)c3[n]1[Pt][n]1c(c(C)c(CCCC(=O)OC)c1=CC1=NC(=C3)C(C)=C1CCCC(=O)OC)=C2 [Example 47, Platinum 8,13-diethyl-3,7,12,17-tetramethylporphyrin-2,18-di(butanoic acid methyl ester)] | – | 200 | – | – | Normal skin Response (1 μmol) [1, 6]: 48 h |
| CCC1=C(C)C2=[N+]3C1=Cc1c(C)c(CC)c4[n]1[Zn-2]31[n]3c(c(C)c(CCC(=O)NCCCN5CCOCC5)c3=CC3=[N+]1C(=C4)C(C)=C3CCC(=O)NCCCN1CCOCC1)=C2 (centres unmarked) [Example 63, Zinc Mesoporphyrin 3-(N-morpholino)propylamide] | None | 25 | – | – | – |
| CCC1=C(C)c2cc3[n-]c(cc4nc(cc5[n-]c(cc1n2)c(C)c5CCC(=O)NCCCO)C(CCC(=O)NCCCO)=C4C)c(C)c3CC.[Cl-].[Ga+3] [Example 66, Gallium Chloride Mesoporphyrin di(3-hydroxypropylamide)] | None | 200 | – | – | – |
| CCC1=C(C)C2=[N+]3C1=Cc1c(C)c(CC)c4[n]1[Ga-2]31([OH])[n]3c(c(C)c(CCC(=O)NCCN(C)C)c3=CC3=[N+]1C(=C4)C(C)=C3CCC(=O)NCCN(C)C)=C2 [Example 70, Gallium Hydroxy Mesoporphyrin di-(N,N-dimethylaminoethylamide)] | None | 1700 | – | – | – |
| CCC1=C(C)c2cc3[nH]c(cc4nc(cc5[nH]c(cc1n2)c(C)c5CCC(=O)NCCN(C)C)C(CCC(=O)NCCN(C)C)=C4C)c(C)c3CC.[Pt] [Example 71, Platinum Mesoporphyrin di(N,N-dimethylaminoethylamide)] | – | 200 | 96 | – | – |
| CCC1=C(C)c2cc3[n-]c(cc4nc(cc5[n-]c(cc1n2)c(C)c5CC)C(C)=C4CCCN1CCCC1)c(CCCN1CCCC1)c3C.[In+3].[OH-] [Example 76, Indium hydroxy 8,13-diethyl-3,7,12,17-tetramethylporphyrin-2,18-di(3-(N-pyrrolidino)propyl)] | – | 20 | – | – | Normal skin Response (1 μmol) [1, 6]: 96 h |
| CCOP(=O)(CCCC1=C(C)c2cc3cc(C)c(cc4nc(cc5[n-]c(cc1n2)c(CCCP(=O)(OCC)OCC)c5C)C(C)=C4)[n-]3)OCC.[Cl-].[In+3] [Example 81, Indium Chloride 3,7,12,17-tetramethylporphyrin-2,18-di((3′-diethylphosphono)propyl)] | – | 400 | – | – | Normal skin Response (1 μmol) [1, 6]: 48 h; photodynamic activity in vivo ([1]; text b240): photodynamically active in vivo |
| CCC1=C(CC)C2=[N+]3C1=Nc1c(CC)c(CC)c4[n]1[Ga-2]31([OH])[n]3c(c(C)c(CCC(=O)[O-])c3=CC3=[N+]1C(=C4)C(C)=C3CCC(=O)[O-])=C2.[Na+].[Na+] [Example 88, Gallium Hydroxy 7,8,12,13-tetraethyl-12,17-dimethyl-10-azaporphyrin-2,18-di(propionic acid Sodium Salt)] | None | – | – | – | normal skin response at the drug doses used ([1]; rat, in vivo): no observed normal skin response; acellularity following PDT of rat arteries at longer treatment times post injection ([3]; 16, 24 hrs post injection): significant acellularity; accelularity in rat artery at a four hour treatment point ([3]; 4 hrs post administration): 10%; Max % Rat Artery Accelularity ([3]; 4 hrs): 10 (4 hrs) %; Max % Rat Artery Accelularity ([3]; 24 hrs): 100 (24 hrs) % |
| CCC1=C(CC)C2=Nc3c(CC)c(CC)c4[n]3[In]([Cl])[n]3c(c(C)c(CCCOC)c3=CC3=NC(=C4)C(C)=C3CCCOC)=CC1=N2 [Example 107, Indium Chloride 7,8,12,13-tetraethyl-12,17-dimethyl-10-azaporphyrin-2,18-di(3-methoxypropyl)] | – | – | 96 | – | EC50 ([2]; Table 4 azaporphyrins, 575 nm (Pt azaporphyrins 532 nm), 1.25 J/cm^2, read-out: In Vitro EC(50)): 50 nM |
| Platinum Mesoporphyrin di(2-ethoxyethanolamide) [Example 69] | None | 500 | – | – | – |
